# Reference: ChEMBL document CHEMBL5724914, “Linking interpersonal differences in gut microbiota composition and drug biotransformation activity” (2024)
# Experiments:
# [1] = (§1) The drug is tested on Z-028 corresponding to mouse gut metagenome with ENA study accession number: PRJEB37062 and ENA sample accession number: ERS12561827 for biotransformation under anaerobic condition. The drug concentrations were measured over 9 timepoints collected between 0 and 24 hours of incubation by liquid-chromatography-coupled mass spectrometry (LC–MS); settings: 2 µM
# [2] = as §1, with “Z-025” for “Z-028”, “rabbit” for “mouse”, “ERS12561824” for “ERS12561827”; settings: 2 µM
# [3] = as §1, with “Z-022” for “Z-028”, “ERS12561821” for “ERS12561827”; settings: 2 µM
# [4] = as §1, with “Z-017” for “Z-028”, “ERS12561816” for “ERS12561827”; settings: 2 µM
# [5] = as §1, with “Z-013” for “Z-028”, “rabbit” for “mouse”, “ERS12561813” for “ERS12561827”; settings: 2 µM
# [6] = as §1, with “Z-012” for “Z-028”, “to” for “to mouse gut”, “ERS12561812” for “ERS12561827”; settings: 2 µM
# [7] = as §1, with “Z-011” for “Z-028”, “ERS12561811” for “ERS12561827”; settings: 2 µM
# [8] = as §1, with “Z-006” for “Z-028”, “ERS12561806” for “ERS12561827”; settings: 2 µM
# [9] = as §1, with “Z-004” for “Z-028”, “to” for “to mouse gut”, “ERS12561804” for “ERS12561827”; settings: 2 µM
# [10] = as §1, with “WLS-310” for “Z-028”, “human” for “mouse”, “ERS12561785” for “ERS12561827”; settings: 2 µM
# [11] = as §1, with “WLS-240” for “Z-028”, “human” for “mouse”, “ERS12561773” for “ERS12561827”; settings: 2 µM
# [12] = as §1, with “WLS-086” for “Z-028”, “human” for “mouse”, “ERS12561752” for “ERS12561827”; settings: 2 µM
# [13] = as §1, with “WLS-038” for “Z-028”, “human” for “mouse”, “ERS12561745” for “ERS12561827”; settings: 2 µM
# [14] = human gut metagenome, 24 h, 2 µM
# [15] = human gut metagenome, 24 h, 2 µM; remark: listed apart in the source
# [16] = human gut metagenome, 24 h, 2 µM; remark: listed apart in the source
# [17] = human gut metagenome, 24 h, 2 µM; remark: listed apart in the source
# [18] = human gut metagenome, 24 h, 2 µM; remark: listed apart in the source
# [19] = human gut metagenome, 24 h, 2 µM; remark: listed apart in the source
# [20] = human gut metagenome, 24 h, 2 µM; remark: listed apart in the source
# Further: call rule not given here.
SMILES,Bacterial Biotransformation [1],Bacterial Biotransformation [2],Bacterial Biotransformation [3],Bacterial Biotransformation [4],Bacterial Biotransformation [5],Bacterial Biotransformation [6],Bacterial Biotransformation [7],Bacterial Biotransformation [8],Bacterial Biotransformation [9],Bacterial Biotransformation [10],Bacterial Biotransformation [11],Bacterial Biotransformation [12],Bacterial Biotransformation [13],Bacterial Biotransformation [14],Bacterial Biotransformation [15],Bacterial Biotransformation [16],Bacterial Biotransformation [17],Bacterial Biotransformation [18],Bacterial Biotransformation [19],Bacterial Biotransformation [20]
Cc1ccccc1C(OCCN(C)C)c1ccccc1.O=C(O)CC(O)(CC(=O)O)C(=O)O (stereo not given) [ORPHENADRINE CITRATE],Compound NOT metabolized,Compound metabolized,Compound NOT metabolized,Compound NOT metabolized,Compound NOT metabolized,Compound NOT metabolized,Compound NOT metabolized,Compound NOT metabolized,Compound metabolized,Compound NOT metabolized,Compound NOT metabolized,Compound NOT metabolized,Compound NOT metabolized,Compound NOT metabolized,Compound NOT metabolized,Compound NOT metabolized,Compound NOT metabolized,Compound NOT metabolized,Compound NOT metabolized,Compound NOT metabolized
O=C1CN2Cc3c(ccc(Cl)c3Cl)N=C2N1 [ANAGRELIDE],Compound NOT metabolized,Compound NOT metabolized,Compound metabolized,Compound NOT metabolized,Compound NOT metabolized,Compound NOT metabolized,Compound NOT metabolized,Compound NOT metabolized,Compound NOT metabolized,Compound metabolized,Compound metabolized,Compound metabolized,Compound metabolized,Compound metabolized,Compound metabolized,Compound metabolized,Compound NOT metabolized,Compound NOT metabolized,Compound metabolized,Compound NOT metabolized
Clc1cccc(Cl)c1N=C1NCCN1 [CLONIDINE],Compound NOT metabolized,Compound NOT metabolized,Compound NOT metabolized,Compound NOT metabolized,Compound NOT metabolized,Compound metabolized,Compound metabolized,Compound NOT metabolized,Compound metabolized,Compound metabolized,Compound metabolized,Compound metabolized,Compound NOT metabolized,Compound metabolized,Compound metabolized,Compound NOT metabolized,Compound metabolized,Compound metabolized,Compound NOT metabolized,Compound NOT metabolized
CC(=O)O[C@]1(C(C)=O)CC[C@H]2[C@@H]3C=C(C)C4=CC(=O)CC[C@]4(C)[C@H]3CC[C@@]21C [MEGESTROL ACETATE],Compound metabolized,Compound metabolized,Compound NOT metabolized,Compound metabolized,Compound metabolized,Compound metabolized,Compound metabolized,Compound metabolized,Compound metabolized,Compound metabolized,Compound metabolized,Compound metabolized,Compound metabolized,Compound metabolized,Compound metabolized,Compound metabolized,Compound metabolized,Compound metabolized,Compound metabolized,Compound metabolized
CCOc1ccccc1OCCN[C@H](C)Cc1ccc(OC)c(S(N)(=O)=O)c1.Cl [TAMSULOSIN HYDROCHLORIDE],Compound NOT metabolized,Compound NOT metabolized,Compound NOT metabolized,Compound NOT metabolized,Compound NOT metabolized,Compound NOT metabolized,Compound NOT metabolized,Compound NOT metabolized,Compound NOT metabolized,Compound NOT metabolized,Compound NOT metabolized,Compound metabolized,Compound NOT metabolized,Compound NOT metabolized,Compound NOT metabolized,Compound NOT metabolized,Compound NOT metabolized,Compound NOT metabolized,Compound NOT metabolized,Compound NOT metabolized
COc1ccc2c(c1)c(CC(=O)O)c(C)n2C(=O)c1ccc(Cl)cc1 [INDOMETHACIN],Compound NOT metabolized,Compound NOT metabolized,Compound NOT metabolized,Compound NOT metabolized,Compound NOT metabolized,Compound NOT metabolized,Compound NOT metabolized,Compound NOT metabolized,Compound NOT metabolized,Compound metabolized,Compound metabolized,Compound metabolized,Compound metabolized,Compound metabolized,Compound metabolized,Compound metabolized,Compound metabolized,Compound metabolized,Compound NOT metabolized,Compound NOT metabolized
O=C(O)CCC(=O)O.O=C(O[C@H]1CN2CCC1CC2)N1CCc2ccccc2[C@@H]1c1ccccc1 [SOLIFENACIN SUCCINATE],Compound NOT metabolized,Compound metabolized,Compound metabolized,Compound NOT metabolized,Compound NOT metabolized,Compound metabolized,Compound NOT metabolized,Compound NOT metabolized,Compound metabolized,Compound NOT metabolized,Compound metabolized,Compound metabolized,Compound metabolized,Compound metabolized,Compound NOT metabolized,Compound NOT metabolized,Compound metabolized,Compound NOT metabolized,Compound metabolized,Compound NOT metabolized
CC(=O)OCC(=O)NCCCOc1cccc(CN2CCCCC2)c1 [ROXATIDINE ACETATE],Compound metabolized,Compound metabolized,Compound metabolized,Compound metabolized,Compound NOT metabolized,Compound metabolized,Compound metabolized,Compound metabolized,Compound metabolized,Compound metabolized,Compound metabolized,Compound metabolized,Compound metabolized,Compound metabolized,Compound metabolized,Compound metabolized,Compound metabolized,Compound metabolized,Compound metabolized,Compound metabolized
